Source: PubChem BioAssay AID248 (DTP/NCI, 2004)
Toxic doses and inconclusive results are not listed. No stated cut-off is given here; in the data, active means T/C of 150% or more; inactive means T/C below 125%.

System: L1210 leukemia ip in BDF1 mice, survival T/C
Assay: NCI In Vivo Anticancer Drug Screen. Data for tumor model L1210 Leukemia (intraperitoneal) in B6D2F1 (BDF1) mice
Details: endpoint: mean survival time, higher = longer survival
Method in brief: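 In this screen, tumor-bearing mice given compound are compared to those given vehicle, and their survival values are reported as a treated-to-control quotient.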

[1] = dose: 25.0 mg/kg/injection, schedule: Q04DX003 (ip), vehicle: saline
[2] = dose: 100.0 mg/kg/injection, schedule: Q04DX003 (ip), vehicle: saline

Measured: T/C

c1ccc([P+](Cc2cccc(C[P+](c3ccccc3)(c3ccccc3)c3ccccc3)c2)(c2ccccc2)c2ccccc2)cc1
inactive: dose: 1.2 mg/kg/injection, schedule: Q01DX001 (ip), vehicle: acetone 107 % of control | dose: 2.5 mg/kg/injection, schedule: Q01DX001 (ip), vehicle: acetone 99 % of control

CC12CCCCC1CCC1C2CCC2(C)C(C(=O)O)CCC12 (configuration not stated)
inactive: dose: 100.0 mg/kg/injection, schedule: Q04DX002 (ip), vehicle: gum acacia 89 % of control | dose: 200.0 mg/kg/injection, schedule: Q04DX002 (ip), vehicle: gum acacia 99 % of control | dose: 400.0 mg/kg/injection, schedule: Q04DX002 (ip), vehicle: gum acacia 92 % of control

NC(=O)C(c1ccccc1)N1CCCC1 (configuration not stated)
inactive: dose: 25.0 mg/kg/injection, schedule: Q01DX009 (ip), vehicle: saline 91 % of control | [1] 98 % of control | dose: 50.0 mg/kg/injection, schedule: Q01DX009 (ip), vehicle: saline 94 % of control | dose: 50.0 mg/kg/injection, schedule: Q04DX003 (ip), vehicle: saline 97 % of control | dose: 100.0 mg/kg/injection, schedule: Q01DX009 (ip), vehicle: saline 91 % of control | [2] 95 % of control

CSc1nnc(-c2ccncc2)s1
inactive: [2] 104 % of control | dose: 200.0 mg/kg/injection, schedule: Q04DX003 (ip), vehicle: saline 107 % of control

FC(F)(F)c1ccc2c(c1)N(CCCN1CC[N+]3(CCOCC3)CC1)c1ccccc1S2
inactive: dose: 6.25 mg/kg/injection, schedule: Q01DX009 (ip), vehicle: saline 97 % of control | dose: 12.5 mg/kg/injection, schedule: Q01DX009 (ip), vehicle: saline 95 % of control | dose: 12.5 mg/kg/injection, schedule: Q04DX003 (ip), vehicle: saline 114 % of control | [1] 91 % of control

CC1CN1C(=O)c1cc(C(=O)N2CC2C)cc(C(=O)N2CC2C)c1 (configuration not stated)
inactive: dose: 15.0 mg/kg/injection, schedule: Q01DX001 (ip), vehicle: saline 102 % of control | dose: 15.0 mg/kg/injection, schedule: Q04DX003 (ip), vehicle: saline 98 % of control | dose: 30.0 mg/kg/injection, schedule: Q01DX001 (ip), vehicle: saline 105 % of control | dose: 30.0 mg/kg/injection, schedule: Q04DX003 (ip), vehicle: saline 98 % of control | dose: 60.0 mg/kg/injection, schedule: Q01DX001 (ip), vehicle: saline 102 % of control | dose: 60.0 mg/kg/injection, schedule: Q04DX003 (ip), vehicle: saline 102 % of control

O=c1[nH]cnc2nn(C3OC(CO)C(O)C3O)cc12 (configuration not stated)
inactive: dose: 100.0 mg/kg/injection, schedule: Q01DX005 (ip), vehicle: saline 105 % of control | dose: 200.0 mg/kg/injection, schedule: Q01DX005 (ip), vehicle: saline 104 % of control

NC1C2C3C=CC(C(C(=O)O)C3C(=O)O)C12 (configuration not stated)
inactive: dose: 100.0 mg/kg/injection, schedule: Q04DX003 (ip), vehicle: Klucel (hydroxypropylcellulose) (HPC) 98 % of control | dose: 200.0 mg/kg/injection, schedule: Q04DX003 (ip), vehicle: Klucel (hydroxypropylcellulose) (HPC) 102 % of control | dose: 400.0 mg/kg/injection, schedule: Q04DX003 (ip), vehicle: Klucel (hydroxypropylcellulose) (HPC) 101 % of control

C/C(=C\Cn1cc([N+](=O)[O-])ccc1=O)CCC(=O)O
inactive: dose: 100.0 mg/kg/injection, schedule: Q01DX009 (ip), vehicle: water 108 % of control | dose: 100.0 mg/kg/injection, schedule: Q04DX003 (ip), vehicle: other 102 % of control | dose: 200.0 mg/kg/injection, schedule: Q01DX009 (ip), vehicle: water 96 % of control | dose: 200.0 mg/kg/injection, schedule: Q04DX003 (ip), vehicle: other 98 % of control | dose: 400.0 mg/kg/injection, schedule: Q01DX009 (ip), vehicle: water 97 % of control | dose: 400.0 mg/kg/injection, schedule: Q04DX003 (ip), vehicle: other 102 % of control

COc1cccc(/C=C/[N+](=O)[O-])c1
inactive: dose: 12.5 mg/kg/injection, schedule: Q01DX009 (ip), vehicle: Klucel (hydroxypropylcellulose) (HPC) 95 % of control | dose: 25.0 mg/kg/injection, schedule: Q01DX009 (ip), vehicle: Klucel (hydroxypropylcellulose) (HPC) 98 % of control | dose: 25.0 mg/kg/injection, schedule: Q04DX003 (ip), vehicle: Klucel (hydroxypropylcellulose) (HPC) 89 % of control | dose: 45.0 mg/kg/injection, schedule: Q04DX003 (ip), vehicle: saline with Tween-80 103 % of control | dose: 50.0 mg/kg/injection, schedule: Q01DX009 (ip), vehicle: Klucel (hydroxypropylcellulose) (HPC) 97 % of control | dose: 50.0 mg/kg/injection, schedule: Q04DX003 (ip), vehicle: Klucel (hydroxypropylcellulose) (HPC) 96 % of control | dose: 90.0 mg/kg/injection, schedule: Q04DX003 (ip), vehicle: saline with Tween-80 106 % of control | dose: 180.0 mg/kg/injection, schedule: Q04DX003 (ip), vehicle: saline with Tween-80 90 % of control
